Measured values reported in US20190119200A1, “TERTIARY AMIDES AND METHOD OF USE” (AbbVie Inc., priority 2016, published 2019).

Biological target: T1, LPAR1 (Homo sapiens, UniProt Q92633)
T1 construct: host or cells: U2OS
Test: LPAR1 Arrestin Assay (arrestin reporter assay)
Assay type: cell-based
Conditions: U2OS cells stably expressing the LPAR1 receptor, 200 nM 18:1 LPA (EC80); for Emax: read-out: Maximum Inhibition
Experimental: One day prior to the experiment, frozen U2OS cells stably expressing the LPAR1 receptor (Life Technologies, Grand Island, N.Y., #K1519A) were thawed, centrifuged at 1,000 rpm for 5 minutes to remove DMSO, and resuspended in FreeStyle™ media (Gibco, Grand Island, N.Y.). Forty microliters of cells were plated into PDL-coated 384-well plates (Greiner Bio-One, Monroe, N.C.) at 10,000 cells/well, and then the plates were incubated overnight in humidified 5% CO2 at 37° C. Test compounds were dissolved in DMSO, and 12-point, 1:3 dilution CRCs were prepared in duplicate; daughter plates were prepared by aliquoting 0.8 μL/well of test compound dilutions into 384-well plates. On the day of the assay, the daughter plates were diluted to 6× stocks using HEPES-buffered HBSS, then 10 μL of 6× test compounds were added to the cells, and the plates were incubated at 37° C. for one hour. After this 1 hour incubation, 10 μL of a 6× stock of the LPAR1 agonist, 18:1 LPA (Avanti Polar Lipids, Alabaster, Ala.), was prepared in HEPES-buffered HBSS+0.1% fatty acid-free BSA (Sigma, St. Louis, Mo.). The 6×LPA was added to all wells for a final concentration of 200 nM, which corresponds to the 18:1 LPA EC80 in this arrestin assay. The final DMSO concentration in the assay plate was 0.1%, and the final BSA concentration was 0.02%. After addition of LPA to all wells, the assay plates were incubated in humidified 5% CO2 at 37° C. for five hours. During the incubation period, 6× dye from the LiveBLAzer™-FRET B/G with CCF4-AM kit (Life Technologies, Grand Island, N.Y.) was prepared according to manufacturers' instructions. At the end of the 5 hour compound incubation, 10 μL of 6× dye was added to each well, and the assay plate was incubated for two hours in the dark at room temperature. Throughout the assay procedure, all volume additions were performed with a Biomek® NX liquid handler (Beckman Coulter, Indianapolis, Ind.). After the 2 hour dye-load, fluorescence was measured on an EnVision® Multilabel Plate Reader (Perkin Elmer, Waltham, Mass.) with an excitation filter at 409/20 nm and emission filters at 460/40 nm and 530/30 nm. Data processing was performed as recommended by the LiveBLAzer™-FRET B/G with CCF4-AM kit manual; all test compound CRCs were performed in duplicate with n≥3.

T1 sequence (Q92633 whole entry): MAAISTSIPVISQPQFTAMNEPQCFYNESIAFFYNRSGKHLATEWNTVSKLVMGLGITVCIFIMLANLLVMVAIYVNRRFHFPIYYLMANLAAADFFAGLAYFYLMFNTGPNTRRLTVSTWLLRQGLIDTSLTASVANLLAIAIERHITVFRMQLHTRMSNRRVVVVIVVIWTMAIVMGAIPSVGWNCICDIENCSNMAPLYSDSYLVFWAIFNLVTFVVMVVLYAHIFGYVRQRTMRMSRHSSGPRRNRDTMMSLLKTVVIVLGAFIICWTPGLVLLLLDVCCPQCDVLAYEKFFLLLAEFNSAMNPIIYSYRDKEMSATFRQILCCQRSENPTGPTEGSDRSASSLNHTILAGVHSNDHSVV

| SMILES | IC50 [nM] | Emax [%] |
| --- | --- | --- |
| COc1cc(C(=O)N(CCCCC(=O)O)CCCc2ccco2)cc(OC)c1C [Example 173, 5-{(3,5-dimethoxy-4-methylbenzoyl)[3-(furan-2-yl)propyl]amino}pentanoic Acid] | 295 | 122 |
| COc1cc(C(=O)N(CCCc2ccccc2)CC(=O)NC2(C(=O)O)CC2)cc(OC)c1C [Example 3, 1-{[N-(3,5-dimethoxy-4-methylbenzoyl)-N-(3-phenylpropyl)glycyl]amino}cyclopropane-1-carboxylic Acid] | 2230 | 110 |
| COc1cc(C(=O)N(CCCc2ccccc2)CCOCP(=O)(O)O)cc(OC)c1C [Example 50, ({2-[(3,5-dimethoxy-4-methylbenzoyl)(3-phenylpropyl)amino]ethoxy}methyl)phosphonic Acid] | 1 | 103 |
| COc1cc(C(=O)N(CCCc2ccccc2)CCSCCC(=O)O)cc(OC)c1C [Example 60, 3-({2-[(3,5-dimethoxy-4-methylbenzoyl)(3-phenylpropyl)amino]ethyl}sulfanyl)propanoic Acid] | 308 | 110 |
| COc1cc(C(=O)N(CCCCC(=O)O)CCCc2ccccc2)cc(OC)c1OC [Example 10, 5-[(3-phenylpropyl)(3,4,5-trimethoxybenzoyl)amino]pentanoic Acid] | 674 | 114 |
| COc1cc(C(=O)N(CCCc2cccc(F)c2)CCSCC(=O)O)cc(OC)c1C [Example 117, [(2-{(3,5-dimethoxy-4-methylbenzoyl)[3-(3-fluorophenyl)propyl]amino}ethyl)sulfanyl]acetic Acid] | 103 | 116 |
| COc1cc(C(=O)N(CCCc2cccc(F)c2)CCOCC(=O)O)cc(OC)c1C [Example 129, (2-{(3,5-dimethoxy-4-methylbenzoyl)[3-(3-fluorophenyl)propyl]amino}ethoxy)acetic Acid] | 218 | 124 |
| COc1cc(C(=O)N(CCCCC(=O)O)CCCc2cccc(F)c2)cc(OC)c1C [Example 33, 5-{(3,5-dimethoxy-4-methylbenzoyl)[3-(3-fluorophenyl)propyl]amino}pentanoic Acid] | 71 | 110 |
| COc1cc(C(=O)N(CCCCC(=O)O)CCCc2ccccc2F)cc(OC)c1C [Example 32, 5-{(3,5-dimethoxy-4-methylbenzoyl)[3-(2-fluorophenyl)propyl]amino}pentanoic Acid] | 76 | 112 |
| COc1cc(C(=O)N(CCCc2cccc(Cl)c2)CCOCC(=O)O)cc(OC)c1C [Example 109, (2-{[3-(3-chlorophenyl)propyl](3,5-dimethoxy-4-methylbenzoyl)amino}ethoxy)acetic Acid] | 139 | 111 |
| COc1cc(C(=O)N(CCCc2ccccc2F)CCOCC(=O)O)cc(OC)c1C [Example 110, (2-{(3,5-dimethoxy-4-methylbenzoyl)[3-(2-fluorophenyl)propyl]amino}ethoxy)acetic Acid] | 706 | 110 |
| COc1cc(C(=O)N(CCCc2ccccc2)CCCC(C)(O)C(=O)O)cc(OC)c1C (centres unmarked) [Example 155, 5-[(3,5-dimethoxy-4-methylbenzoyl)(3-phenylpropyl)amino]-2-hydroxy-2-methylpentanoic Acid] | 401 | 125 |
| COc1ccc(C2(C(=O)N(CCCCC(=O)O)CCCc3ccccc3)CC2)cc1 [Example 8, 5-{[1-(4-methoxyphenyl)cyclopropane-1-carbonyl](3-phenylpropyl)amino}pentanoic Acid] | 691 | 112 |
| COc1cc(C(=O)N(CCCCC(=O)NS(C)(=O)=O)CCCc2ccccc2)cc(OC)c1C [Example 111, N-{5-[(methanesulfonyl)amino]-5-oxopentyl}-3,5-dimethoxy-4-methyl-N-(3-phenylpropyl)benzamide] | 93 | 116 |
| COc1cc(C(=O)N(CCCc2cccc(Cl)c2)CCSCC(=O)O)cc(OC)c1C [Example 122, [(2-{[3-(3-chlorophenyl)propyl](3,5-dimethoxy-4-methylbenzoyl)amino}ethyl)sulfanyl]acetic Acid] | 152 | 127 |
| COc1cc(C(=O)N(CCCc2ccccc2)CCC[C@@H](C)C(=O)O)cc(OC)c1C (single isomer, unassigned) [Example 77] | 5 | 102 |

| SMILES | IC50 [nM] | Emax [%] |
| --- | --- | --- |
| COc1cc(C(=O)N(CCCc2ccccc2)CCOCC(=O)NS(C)(=O)=O)cc(OC)c1C [Example 157, N-(2-{2-[(methanesulfonyl)amino]-2-oxoethoxy}ethyl)-3,5-dimethoxy-4-methyl-N-(3-phenylpropyl)benzamide] | 108 | 128 |
| COc1ccc(C2(C(=O)N(CCCc3ccccc3)CCSCC(=O)O)CC2)cc1 [Example 115, [(2-{[1-(4-methoxyphenyl)cyclopropane-1-carbonyl](3-phenylpropyl)amino}ethyl)sulfanyl]acetic Acid] | 1080 | 104 |
| COc1cc(C(=O)N(CCCc2ccccc2F)CCSCC(=O)O)cc(OC)c1C [Example 116, [(2-{(3,5-dimethoxy-4-methylbenzoyl)[3-(2-fluorophenyl)propyl]amino}ethyl)sulfanyl]acetic Acid] | 281 | 108 |
| COc1cc(C(=O)N(CCCCC(=O)O)CCCc2cccc(Cl)c2)cc(OC)c1C [Example 38, 5-{[3-(3-chlorophenyl)propyl](3,5-dimethoxy-4-methylbenzoyl)amino}pentanoic Acid] | 26 | 114 |
| COc1cc(OC)cc(C(=O)N(CCCCC(=O)O)CCCc2cccc(Cl)c2)c1 [Example 91, 5-{[3-(3-chlorophenyl)propyl](3,5-dimethoxybenzoyl)amino}pentanoic Acid] | 293 | 120 |
| COc1cc(C(=O)N(CCCCC(=O)O)CCCc2ccccc2)cc(OC)c1Br [Example 20, 5-[(4-bromo-3,5-dimethoxybenzoyl)(3-phenylpropyl)amino]pentanoic Acid] | 43 | 101 |
| COc1cc(C(=O)N(CCCc2ccc(C)o2)CCSCC(=O)O)cc(OC)c1C [Example 132, [(2-{(3,5-dimethoxy-4-methylbenzoyl)[3-(5-methylfuran-2-yl)propyl]amino}ethyl)sulfanyl]acetic Acid] | 490 | 126 |
| COc1cc(C(=O)N(CCCCC(=O)O)CCCc2ccccc2)cc(OC)c1C(F)(F)F [Example 37, 5-{[3,5-dimethoxy-4-(trifluoromethyl)benzoyl](3-phenylpropyl)amino}pentanoic Acid] | 231 | 122 |
| COc1cc(C(=O)N(CCCc2ccccc2)CCOCC(=O)O)cc(OC)c1C [Example 6, {2-[(3,5-dimethoxy-4-methylbenzoyl)(3-phenylpropyl)amino]ethoxy}acetic Acid] | 126 | 130 |
| COc1cc(C(=O)N(CCCCC(=O)O)CCCc2ccc(F)cc2)cc(OC)c1C [Example 34, 5-{(3,5-dimethoxy-4-methylbenzoyl)[3-(4-fluorophenyl)propyl]amino}pentanoic Acid] | 391 | 115 |
| COc1cc(C(=O)N(CCCc2ccccc2)CCSCC(=O)O)cc(OC)c1C [Example 44, ({2-[(3,5-dimethoxy-4-methylbenzoyl)(3-phenylpropyl)amino]ethyl}sulfanyl)acetic Acid] | 69 | 114 |
| COc1cc(C(=O)N(CCCc2ccccc2Cl)CCOCC(=O)O)cc(OC)c1C [Example 131, (2-{[3-(2-chlorophenyl)propyl](3,5-dimethoxy-4-methylbenzoyl)amino}ethoxy)acetic Acid] | 2140 | 120 |
| COc1cc(C(=O)N(CCCc2ccccc2)CCCC(C)(C)C(=O)O)cc(OC)c1C [Example 57, 5-[(3,5-dimethoxy-4-methylbenzoyl)(3-phenylpropyl)amino]-2,2-dimethylpentanoic Acid] | 4 | 103 |
| COc1cc(C(=O)N(CCCCC(=O)O)CCCc2ccc(Cl)o2)cc(OC)c1C [Example 185, 5-{[3-(5-chlorofuran-2-yl)propyl](3,5-dimethoxy-4-methylbenzoyl)amino}pentanoic Acid] | 288 | 122 |
| COc1cc(C(=O)N(CCCCC(=O)O)CCCc2ccccc2)cc(OC)c1C [Example 4, 5-[(3,5-dimethoxy-4-methylbenzoyl)(3-phenylpropyl)amino]pentanoic Acid] | 27 | 101 |
